Measurements published in PubChem BioAssay (NCI).
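96-well plates; 48 h exposure; 5 concentrations. Endpoints by linear interpolation between flanking doses. Not reached: highest tested concentration assigned. TGI: total growth inhibition.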

Key:
Assay in all cases: DTP human tumour cell line panel, 48 h
[1] = system: 786-0 renal
[2] = system: A498 renal
[3] = system: A549 NSCLC
[4] = system: ACHN renal
[5] = system: BT-549 breast
[6] = system: CAKI-1 renal
[7] = system: CCRF-CEM leukemia
[8] = system: COLO 205 colon
[9] = system: DU-145 prostate
[10] = system: EKVX NSCLC
[11] = system: HCC-2998 colon
[12] = system: HCT-116 colon
[13] = system: HCT-15 colon
[14] = system: HL-60(TB) leukemia
[15] = system: HOP-62 NSCLC
[16] = system: HOP-92 NSCLC
[17] = system: HS 578T breast
[18] = system: HT29 colon
[19] = system: IGROV1 ovarian
[20] = system: K-562 leukemia
[21] = system: KM12 colon
[22] = system: LOX IMVI melanoma
[23] = system: M14 melanoma
[24] = system: MALME-3M melanoma
[25] = system: MCF7 breast
[26] = system: MDA-MB-231 breast
[27] = system: MDA-MB-435
[28] = system: MDA-N
[29] = system: MOLT-4 leukemia
[30] = system: NCI-H226 lung
[31] = system: NCI-H23 lung
[32] = system: NCI-H460 lung
[33] = system: NCI-H522 lung
[34] = system: NCI/ADR-RES ovarian
[35] = system: OVCAR-3 ovarian
[36] = system: OVCAR-4 ovarian
[37] = system: OVCAR-5 ovarian
[38] = system: OVCAR-8 ovarian
[39] = system: PC-3 prostate
[40] = system: RPMI-8226 leukemia
[41] = system: RXF 393 renal
[42] = system: SF-268 CNS
[43] = system: SF-295 CNS
[44] = system: SF-539 CNS
[45] = system: SK-MEL-2 melanoma
[46] = system: SK-MEL-28 melanoma
[47] = system: SK-MEL-5 melanoma
[48] = system: SK-OV-3 ovarian
[49] = system: SN12C renal
[50] = system: SNB-19 CNS
[51] = system: SR leukemia
[52] = system: SW-620 colon
[53] = system: T-47D breast
[54] = system: TK-10 renal
[55] = system: U251 CNS
[56] = system: UACC-257 melanoma
[57] = system: UACC-62 melanoma
[58] = system: SNB-75 CNS
[59] = system: UO-31 renal

O=C1c2ccccc2C(=O)N1c1ccc(OCCN2CCCCC2)cc1
TGI [1]: > 100 µM | TGI [2]: > 100 µM | TGI [3]: > 100 µM | TGI [4]: > 100 µM | TGI [5]: > 100 µM | TGI [6]: > 100 µM | TGI [7]: > 100 µM | TGI [8]: > 100 µM | TGI [9]: > 100 µM | TGI [10]: > 100 µM | TGI [11]: > 100 µM | TGI [12]: > 100 µM | TGI [13]: > 100 µM | TGI [14]: > 100 µM | TGI [15]: > 100 µM | TGI [16]: > 100 µM | TGI [17]: > 100 µM | TGI [18]: > 100 µM | TGI [19]: > 100 µM | TGI [20]: > 100 µM | TGI [21]: > 100 µM | TGI [22]: > 100 µM | TGI [23]: > 100 µM | TGI [24]: > 100 µM | TGI [25]: > 100 µM | TGI [26]: > 100 µM | TGI [27]: > 100 µM | TGI [28]: > 100 µM | TGI [29]: > 100 µM | TGI [30]: > 100 µM | TGI [31]: > 100 µM | TGI [32]: > 100 µM | TGI [33]: > 100 µM | TGI [34]: > 100 µM | TGI [35]: > 100 µM | TGI [36]: > 100 µM | TGI [37]: > 100 µM | TGI [38]: > 100 µM | TGI [39]: > 100 µM | TGI [40]: > 100 µM | TGI [41]: > 100 µM | TGI [42]: > 100 µM | TGI [43]: > 100 µM | TGI [44]: > 100 µM | TGI [45]: > 100 µM | TGI [46]: > 100 µM | TGI [47]: > 100 µM | TGI [48]: > 100 µM | TGI [49]: > 100 µM | TGI [50]: > 100 µM | TGI [51]: > 100 µM | TGI [52]: > 100 µM | TGI [53]: > 100 µM | TGI [54]: > 100 µM | TGI [55]: > 100 µM | TGI [56]: > 100 µM | TGI [57]: > 100 µM

CC(=O)OC[C@@]12C[C@H]3C(=O)C(C)(C)C[C@H]3[C@]1(C)[C@@H](OC(C)=O)[C@]1(O)[C@H]([C@@H](OC(=O)c3ccccc3)[C@@H](C)[C@H]1OC(C)=O)[C@H]2OC(C)=O
TGI [1]: > 20 µM | TGI [2]: > 20 µM | TGI [4]: > 20 µM | TGI [5]: > 20 µM | TGI [6]: > 20 µM | TGI [7]: > 20 µM | TGI [8]: > 20 µM | TGI [9]: > 20 µM | TGI [10]: > 20 µM | TGI [11]: > 20 µM | TGI [12]: > 20 µM | TGI [13]: > 20 µM | TGI [14]: > 20 µM | TGI [15]: > 20 µM | TGI [16]: > 20 µM | TGI [17]: > 20 µM | TGI [19]: > 20 µM | TGI [20]: > 20 µM | TGI [21]: > 20 µM | TGI [22]: > 20 µM | TGI [23]: > 20 µM | TGI [25]: > 20 µM | TGI [26]: > 20 µM | TGI [27]: > 20 µM | TGI [28]: > 20 µM | TGI [29]: > 20 µM | TGI [30]: > 20 µM | TGI [31]: > 20 µM | TGI [32]: > 20 µM | TGI [33]: > 20 µM | TGI [34]: > 20 µM | TGI [35]: > 20 µM | TGI [36]: > 20 µM | TGI [37]: > 20 µM | TGI [38]: > 20 µM | TGI [39]: > 20 µM | TGI [41]: > 20 µM | TGI [42]: > 20 µM | TGI [43]: > 20 µM | TGI [44]: > 20 µM | TGI [45]: > 20 µM | TGI [47]: > 20 µM | TGI [48]: > 20 µM | TGI [49]: > 20 µM | TGI [50]: > 20 µM | TGI [58]: > 20 µM | TGI [51]: > 20 µM | TGI [52]: > 20 µM | TGI [53]: > 20 µM | TGI [54]: > 20 µM | TGI [55]: > 20 µM | TGI [56]: > 20 µM | TGI [57]: > 20 µM | TGI [59]: > 20 µM

Cc1cccc2c1C(=O)C(C1OC(=O)c3ccccc31)C2 (centres undefined)
TGI [1]: > 100 µM | TGI [2]: > 100 µM | TGI [3]: > 100 µM | TGI [4]: > 100 µM | TGI [5]: > 100 µM | TGI [6]: > 100 µM | TGI [7]: > 100 µM | TGI [8]: > 100 µM | TGI [9]: > 100 µM | TGI [10]: > 100 µM | TGI [11]: > 100 µM | TGI [12]: > 100 µM | TGI [13]: > 100 µM | TGI [14]: > 100 µM | TGI [15]: > 100 µM | TGI [16]: > 100 µM | TGI [17]: > 100 µM | TGI [18]: > 100 µM | TGI [19]: > 100 µM | TGI [20]: > 100 µM | TGI [21]: > 100 µM | TGI [22]: > 100 µM | TGI [24]: > 100 µM | TGI [25]: > 100 µM | TGI [26]: > 100 µM | TGI [27]: > 100 µM | TGI [28]: > 100 µM | TGI [29]: > 100 µM | TGI [30]: > 100 µM | TGI [31]: > 100 µM | TGI [32]: > 100 µM | TGI [33]: > 100 µM | TGI [34]: > 100 µM | TGI [35]: > 100 µM | TGI [36]: > 100 µM | TGI [37]: > 100 µM | TGI [38]: > 100 µM | TGI [39]: > 100 µM | TGI [40]: > 100 µM | TGI [41]: > 100 µM | TGI [42]: > 100 µM | TGI [43]: > 100 µM | TGI [44]: > 100 µM | TGI [45]: > 100 µM | TGI [46]: > 100 µM | TGI [47]: > 100 µM | TGI [48]: > 100 µM | TGI [49]: > 100 µM | TGI [50]: > 100 µM | TGI [58]: > 100 µM | TGI [51]: > 100 µM | TGI [52]: > 100 µM | TGI [53]: > 100 µM | TGI [54]: > 100 µM | TGI [55]: > 100 µM | TGI [56]: > 100 µM | TGI [57]: > 100 µM | TGI [59]: > 100 µM
